Assay type in all cases: in vivo
Assay [1] concerns bitter impression of aqueous caffeine solution. The assay can be described thus: Reducing bitterness of a bitter substance solution, rated by a panel of experts (caffeine). The note with it: 500 ppm caffeine; for Bitter impression (1-10) with: error = 95% confidence range. On the procedure:
(§1) In order to quantify the reduction in the bitter impression, the bitterness of an aqueous bitter substance solution and a sample containing the same quantity of bitter substance and a varying quantity of the exemplary compound, was determined by a panel of experts (rating 0 [not bitter] to 10 [extremely bitter]). Evaluation took place by calculating the reduction (in %) in the bitter impression from the average values of the assessments of the bitter substance solution or the solutions containing bitter substance and exemplary compound. […] (2,4-DHB) was used as a comparison from U.S. Pat. No. 5,643,941.

Assay [2] has as its system bitter impression of aqueous quinine hydrochloride solution. The assay can be described thus: Reducing bitterness of a bitter substance solution, rated by a panel of experts (quinine hydrochloride). The following applies: 30 ppm substance, 5 ppm quinine hydrochloride. On the procedure: as §1
Assay [3] relates to taste impressions of meat stock with 0.4 wt. % sodium chloride and 0.4 wt. % potassium chloride. The assay can be described thus: Reduction in unpleasant taste impressions of potassium chloride-containing meat stock (triangle difference testing). The following applies: 30 ppm. On the procedure:
A fat- and common salt-free meat stock is prepared with 0.4 wt. % sodium chloride and 0.4 wt. % potassium chloride (in each case relative to total weight) (comparison solution A). The same solution is prepared again and a quantity of phloretin (compound 4 from Example 1) is added. Solution A is served up to the testers once with the designation “standard solution”, and at the same time solution A and solution B are served up as “test solution 1” or “test solution 2” in a random order unknown to the respective tester (i.e. solutions A and B may have different designations for different testers; each tester has to test three solutions). In a first test phase, the testers are asked whether one of the three solutions tastes different from the other two (triangle difference testing). If the response to this question is “No”, the test is stopped for that tester. If the response to this question is “Yes”, the tester has to quantify the flavor qualities, listed below, of “test solution 1” or “test solution 2” deviating from the “standard solution” (relative to the “standard solution”, 0 flavor quality identical to the standard, −4 very much weaker than the standard, +4 very much stronger than the standard). Taking as basis the results from all the testers, the average of all deviations from the “standard solution” is calculated for the individual flavor qualities.

Assay [4] concerns bitter impression of aqueous salicin solution. In words: Reducing bitterness of a bitter substance solution, rated by a panel of experts (salicin). The note with it: 30 ppm substance, 250 ppm salicin. The protocol:
as §1

Take `O=C(O)c1ccc(O)cc1O` [2,4-DHB, 2,4-dihydroxybenzoic acid, reference compound]: in assay [1] (100 ppm substance), the “% reduction in bitter impression” value is reported as 3%, n.s and the “Bitter impression (1-10) with” value was 5.0 ± 1.0. Moreover, in assay [1] (100 ppm substance, 15 testers total), the “Tester positive (number of testers who were able to identify masking)” value (“Tester positive” for short) was found to be 9.

`O=C(CCc1ccc(O)cc1)c1c(O)cc(O)cc1O` [Compound 4, 3-(4-hydroxyphenyl)-1-(2,4,6-trihydroxy-phenyl)propan-1-one]: in assay [1] (50 ppm substance), the “% reduction in bitter impression” value was 28%, p < 0.05; the “Tester positive” value is reported as 13; the “Bitter impression (1-10) with” value is reported as 3.9 ± 1.8. Also, in assay [2], the “% reduction in bitter impression” value is reported as 25%, n.s. Further, in assay [2] (15 testers total), the “Tester positive” value stood at 10. In assay [2] (error = 95% confidence range), the “Bitter impression (1-10) with” value came out at 2.0 ± 1.4. In addition, in assay [3] (of 21 testers, triangle difference testing), the Positive testers is reported as 16 (p < 0.05). For the same compound, in assay [3] (scale −4 to +4), the “Aromaticity, average deviation from standard solution” value is −0.1; the “Bitter, average deviation from standard solution” value was −0.4; the “Mouth fullness, average deviation from standard solution” value is 0.3; the “Sour, average deviation from standard solution” value is reported as 0.1. Also, in assay [3] (scale −4 to +4), the “Sweet, average deviation from standard solution” value is 0.9. Also, in assay [3] (scale −4 very much weaker to +4 very much stronger than the standard), the “Salty, average deviation from standard solution” value is −0.7. For the same compound, the “% reduction in bitter impression” value in assay [4] is listed as 18%, p < 0.1. The “Tester positive” value in assay [4] (15 testers total) is reported as 10. The “Bitter impression (1-10) with” value in assay [4] (error = 95% confidence range) was found to be 6.0 ± 1.8.
